Here are results for 1 compound from article PMC3231123, “A Bacterial Biosensor for Oxidative Stress Using the Constitutively Expressed Redox-Sensitive Protein roGFP2” (Sensors (Basel, Switzerland), 2010).

In this test the target is T1, roGFP2 (Aequorea victoria, UniProt P42212, C48S/S65T/Q80R/S147C/Q204C).
T1 construct: gene GFP; redox-sensitive GFP mutant, His tag (pRSET-roGFP2), expressed in E. coli DH5alpha, Ni-NTA purified, DTT-reduced then desalted
As to the kind of experiment: […] nm excitation fluorescence ratio of isolated roGFP2, plate reader. As to conditions: 1 ppm menadione; DTT-reduced roGFP2 1.39 ug/mL; 75 mM HEPES pH 7.0, 140 mM NaCl; monitored 5 min; oxidation of roGFP2, not reversible binding.

On to `CC1=CC(=O)c2ccccc2C1=O` [menadione, 2-methyl-1,4-naphtoquinone], for which the “% change of 400/490 nm ratio vs t = 0 at 1 ppm” value was in the range of 9.1 to 29.4%.
